Measured values: PubChem BioAssay (NCI)
“And” between values parts separate entries of the source, which are not always exact repeats. Identical values can stand only once.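 Step 1: Grow cells in 96-well plates. Step 2: Expose to compound for 48 hours at 5 concentrations. Step 3: Interpolate endpoints linearly; if unreached, use highest concentration. GI50: concentration for 50% inhibition of growth. TGI marks complete inhibition of growth.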

Columns and labels:
Assay in all cases: DTP human tumour cell line panel, 48 h
[1] = system: KM12 colon
[2] = system: 786-0 renal
[3] = system: PC-3 prostate
[4] = system: SR leukemia
[5] = system: CCRF-CEM leukemia
[6] = system: SK-MEL-28 melanoma
[7] = system: UACC-257 melanoma
[8] = system: SN12C renal
[9] = system: SF-268 CNS
[10] = system: NCI-H522 lung

Compound	GI50 [1] [µM]	TGI [1] [µM]	GI50 [2] [µM]	TGI [2] [µM]	GI50 [3] [µM]	TGI [3] [µM]	GI50 [4]	TGI [4] [µM]	GI50 [5]	TGI [5] [µM]	GI50 [6] [µM]	TGI [6] [µM]	GI50 [7] [µM]	TGI [7] [µM]	GI50 [8] [µM]	TGI [8] [µM]	GI50 [9]	TGI [9] [µM]	GI50 [10] [µM]	TGI [10] [µM]
CC(C)(C)c1cc(-c2nc3c(F)c(F)c(F)c(F)c3[nH]2)cc(C(C)(C)C)c1O	> 100	> 100	> 100	> 100	> 100	> 100	38 µM	> 100	> 100 µM	> 100	> 100	> 100	> 100	> 100	> 100	> 100	> 100 µM	> 100	> 100	> 100
Nc1ncnc2c1ncn2C1OC(COC2C(CO)OC(OC(C(=O)O)C(O)C(OP(=O)(O)O)C(O)C(=O)O)C(O)C2O)C(O)C1O (configuration not stated)		> 100		> 100		> 100		> 100		> 100		> 100		> 100				> 100		> 100
c1ccc2c3c(ccc2c1)-c1c(ccc2c(NCCCCN4CCCCC4)cccc12)C3	1.51	3	1.76	3.14	1.61	3.23	1.37 µM	5.4			1.88	4.06	1.89	4.92	1.62	3.05	1.07 µM	2.25	3.42	9.22
COc1cc(C)c(NC(=O)CN(C)C)cc1Nc1nc(Nc2cccc(F)c2C(N)=O)c2cc[nH]c2n1	0.524	1.92	4.15	8.76	2.21	7.56	0.00977 µM	2.89	0.403 µM	4.88	2.68	9.62	0.0555	4.05	3.86	8.23	1.27 µM	5.47	0.623	3.69
O=C(O)CCSC(=S)Nc1ccc([N+](=O)[O-])cc1		> 100		> 100		> 100		52.9		> 68.2		> 100		55.1		> 100		> 100		> 68
Fc1cccc(-c2[nH]nc3nc(Nc4cccnc4)sc23)c1	0.631	> 100	> 100	> 100	6.34	> 100	0.979 µM	> 100	3.5 µM	> 100	17.5	> 100	> 100	> 100	> 100	> 100	> 100 µM	> 100	13.7	> 100
COC1=C(OC)[C@]2(OC)c3c(O)c(OC)c4c(c3O[C@@]23O[C@@H](c2ccccc2)CC=C3C1=O)[C@@H](O)C[C@H](c1ccccc1)O4			0.171	0.339	0.466	1.03	0.229 µM	0.612	0.0545 µM	0.208	0.318	1	1.01	2.36	0.27	0.893	0.311 µM	1.35		
Nc1ccc(-c2ccc(-c3nc4cc(Cl)c(Cl)cc4[nH]3)cc2)cc1	0.826		2.05	18.9	7.99	> 61.2	0.181 µM	45.2	0.508 µM	> 52.7	13.4	> 100	1.38	> 60.7	17.9	> 66.7		9.24	1.03	> 80.9
CCCCCC/C=C1\CCC(CN(C)C)C1=O (configuration not stated)		6.68		3.99		24		11.7		7.21		12		17.7		8.74		14.3		6.28
O=C(O)c1ccccc1Nc1ccc2nnc(-c3ccncc3)n2n1	7.34	23.9	4.64	19.7	13.4	31.9	5.23 µM	> 100	4.28 µM	> 100	12.7	29.6	10.6	33.6	3.56	17.1	5.6 µM	29.2	10.4	22.8
Oc1c(I)cc(I)cc1CN(Cc1ccccn1)Cc1ccccn1	0.774	> 42.3	0.952	12	0.898	20.6	0.476 µM	9.77	0.385 µM	30.8	1.44	31.6	2.8	14.5	1.23	33.6	0.575 µM	16.1	2.04	28
Cc1cc(N(CCOS(C)(=O)=O)CCOS(C)(=O)=O)ccc1C=Nc1ccc(-c2csc(-c3ccc(Br)cc3)n2)cc1		21.6		20.7		86.8		> 94.3		> 100		99.6		56.8		> 79.7		> 80.2		1.68
O=S(=O)(CCCCl)SCCCCl		> 100		33.2		> 100		60.1		47.1		> 100		> 100		64.1		65		32.6
C/C(=C\c1ccn(-c2ccc(N)cc2F)n1)[C@@H]1C[C@@H]2O[C@]2(C)CCC[C@H](C)[C@H](O)[C@@H](C)C(=O)C(C)(C)[C@@H](O)CC(=O)O1	0.0156	> 50	0.0992	> 50	0.0256	> 50	0.0236 µM	> 50	0.0197 µM	> 50	1.05	> 50	> 50	> 50	0.0768	> 50	0.0822 µM	> 50	0.0255	0.171
Cc1ccc2c(c1)C=CC(C#N)N2C(=O)Oc1ccccc1 (configuration not stated)		33.2		> 100		97.9		46.8		40.1		> 100		> 100		> 100		> 100		41
Oc1c(CN2CCN(c3ccccc3F)CC2)cc(Br)c2cccnc12	0.672	> 100	2.42	12.6	0.807	31.7	0.419 µM	5.17	0.355 µM	6.35	2.49	> 100	2.06	24.1	0.987	20.5	0.858 µM	> 100	0.662	5.05
Cc1c(-c2nnc(-c3cc(Cl)c(Cl)cc3Cl)o2)nnn1-c1ccnc2c(C(F)(F)F)cccc12	24.6	67.4	33.8	> 100	15.9	37.4	20.6 µM	47.5			26.5	75.3			31.4	> 100	25 µM	62.2	21.8	55.8
C[CH2][Sn]([CH2]C)([O]C(=O)c1ccc(F)cc1)[O][Sn]([CH2]C)([CH2]C)[O]C(=O)c1ccc(F)cc1	> 100	> 100	53.6	> 100			41.1 µM	> 100	10.7 µM	57.6	33.9	> 100	41.1	> 100	67.2	> 100	67.4 µM	> 100	3.01	12.4
C/C=C/C1=CN2C(=O)c3cc(OC4OC(C)C(NC)C(C)(O)C4O)c(C)c(O)c3N=C[C@@H]2C1 (some centres not stated)			0.065			16.5	0.0253 µM and < 0.01 µM		0.0639 µM and < 0.01 µM	41.5						1.21	0.0342 µM and < 0.01 µM		0.119	0.302
O=c1ccnc(SCc2ccc(Cl)cc2)[nH]1		> 100		> 100		> 100		> 100		> 100		> 100		> 100		> 100		> 100		> 100
COc1ccc2nc(-c3cc4c([nH]c5ccccc54)c(-c4ccc(F)c(F)c4)n3)[nH]c2c1	2.93	13	10.2	24.9	3.25	22.5	1.97 µM	6.7	2.36 µM	7.8	12.7	27	5.68	22	3.97	23.5	5.8 µM	69.6	10	33.8
C=CCSSc1ncnc2c1ncn2C1OC(CO)C(O)C1O (configuration not stated)	3.24	> 39.9	2.35	> 86.9	2.28	> 22.4	0.205 µM	3.73	0.46 µM	4.5	36.5	> 100	6.79	> 86.1	11.3	> 100	5.05 µM	> 58.1	1.34	10.7
Nc1nc(-c2ccccc2)cc(-c2ccc(Cl)cc2)c1-c1nc2ccccc2o1	5.65	20.7	10.6	22.3	2.95	14.2	3.08 µM	8.11	3.8 µM	17	17	32.6	19.5	35.1	7.56	20	10.9 µM	27.7	13.5	30.6
Cc1cc2nc(C(Cl)Cl)nc(-c3ccccc3)n2n1	1.78	4.86	52.9	> 100	4.77	37.9	2.3 µM	> 100	25.8 µM	> 100	3.54	13.1	7.35	34.2	24.7	> 100	4.76 µM	39.4	4.27	> 100
CC[CH2][Sn]([CH2]CC)([O]C(=O)Cc1ccc(F)cc1)[O][Sn]([CH2]CC)([CH2]CC)[O]C(=O)Cc1ccc(F)cc1	0.702	2.06	0.133	0.361	1	2.16	0.0781 µM	5.03		1.12	0.157	0.446	0.204	0.869	0.262	1	0.13 µM	0.606		0.0322
COc1ccc(C2CC(=O)c3c(O)c(OC)c(OC)c(OC)c3O2)cc1O (configuration not stated)	0.0585	> 100	1.64	> 100	0.0642	> 100	0.0467 µM	> 100	0.115 µM	> 100	14.4	> 100			1.1	> 100	0.407 µM	> 100	0.0386	0.775
O=C(Cc1ccccc1)NS(=O)(=O)c1ccccc1		> 100		> 100				> 100		> 100		> 100		> 100		> 100		> 100		> 100
C=C1C(=O)O[C@H]2[C@H]1CC/C(COC(=O)NCc1cc(OC)cc(OC)c1)=C\CC[C@@]1(C)O[C@@H]21	2.8	11	1.7	3.45	2.72	8.67	0.32 µM	2.91	0.476 µM	4.36	1.47	3.54	1.54	3.7			2.46 µM	9.9	0.349	1.49
